Assay results published in PubChem BioAssay AID2060902 (Molecular Pharmacology Branch, DTP, NCI, 2025).

Test system: 485368-065-R3-J5-PDC spheroids with HUVEC/MSC, viability
Assay: Anticancer human tumor 485368-065-R3-J5-PDC patient-derived pancreatic carcinoma cell line growth inhibition [RAS]
Details: for IC50: curve of first compound; for viability, T/C: stronger effect = lower value
Outline: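 Tumour cells grown as complex spheroids with HUVEC endothelial cells and mesenchymal stem cells, treated with RAS pathway inhibitor combinations. Each agent spans half-log steps from near clinical Cmax, or 10 microM where Cmax is unknown.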
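Further: spheroids exposed to agents for seven days before readout.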

## CC(=O)OC12COC1CC(O)C1(C)C(=O)C(O)C3=C(C)C(OC(=O)C(O)C(NC(=O)OC(C)(C)C)c4ccccc4)CC(O)(C(OC(=O)c4ccccc4)C21)C3(C)C (configuration not stated) + C=CC(=O)N1CCN(c2nc(OCC3CCCN3C)nc3c(F)c(-c4nc(N)cc(C)c4C(F)(F)F)c(Cl)cc23)C(C)C1
Second compound 0.00316 µM
  IC50: < 31.6 nM
Second compound 0.01 µM
  IC50: < 31.6 nM
Second compound 0.0316 µM
  IC50: < 31.6 nM
Second compound 0.1 µM
  IC50: < 31.6 nM
Second compound 0.316 µM
  IC50: < 31.6 nM
Second compound 1 µM
  IC50: < 31.6 nM
Second compound 0.00316 µM, first compound 0.0316 µM
  viability, T/C: 14.1%
Second compound 0.00316 µM, first compound 0.1 µM
  viability, T/C: 12.1%
Second compound 0.00316 µM, first compound 0.316 µM
  viability, T/C: 13.5%
Second compound 0.00316 µM, first compound 1 µM
  viability, T/C: 12.9%
Second compound 0.00316 µM, first compound 3.16 µM
  viability, T/C: 13.9%
Second compound 0.00316 µM, first compound 10 µM
  viability, T/C: 18.2%
Second compound 0.01 µM, first compound 0.0316 µM
  viability, T/C: 11.4%
Second compound 0.01 µM, first compound 0.1 µM
  viability, T/C: 10.3%
Second compound 0.01 µM, first compound 0.316 µM
  viability, T/C: 11.2%
Second compound 0.01 µM, first compound 1 µM
  viability, T/C: 11.9%
Second compound 0.01 µM, first compound 3.16 µM
  viability, T/C: 11.9%
Second compound 0.01 µM, first compound 10 µM
  viability, T/C: 21.3%
Second compound 0.0316 µM, first compound 0.0316 µM
  viability, T/C: 13.2%
Second compound 0.0316 µM, first compound 0.1 µM
  viability, T/C: 9.68%
Second compound 0.0316 µM, first compound 0.316 µM
  viability, T/C: 12.2%
Second compound 0.0316 µM, first compound 1 µM
  viability, T/C: 16%
Second compound 0.0316 µM, first compound 3.16 µM
  viability, T/C: 16.2%
Second compound 0.0316 µM, first compound 10 µM
  viability, T/C: 19.9%
Second compound 0.1 µM, first compound 0.0316 µM
  viability, T/C: 10.6%
Second compound 0.1 µM, first compound 0.1 µM
  viability, T/C: 10.8%
Second compound 0.1 µM, first compound 0.316 µM
  viability, T/C: 13.7%
Second compound 0.1 µM, first compound 1 µM
  viability, T/C: 10%
Second compound 0.1 µM, first compound 3.16 µM
  viability, T/C: 17.6%
Second compound 0.1 µM, first compound 10 µM
  viability, T/C: 20.2%
Second compound 0.316 µM, first compound 0.0316 µM
  viability, T/C: 9.72%
Second compound 0.316 µM, first compound 0.1 µM
  viability, T/C: 13.7%
Second compound 0.316 µM, first compound 0.316 µM
  viability, T/C: 11.7%
Second compound 0.316 µM, first compound 1 µM
  viability, T/C: 13%
Second compound 0.316 µM, first compound 3.16 µM
  viability, T/C: 22.9%
Second compound 0.316 µM, first compound 10 µM
  viability, T/C: 28.2%
Second compound 1 µM, first compound 0.0316 µM
  viability, T/C: 12.8%
Second compound 1 µM, first compound 0.1 µM
  viability, T/C: 15.1%
Second compound 1 µM, first compound 0.316 µM
  viability, T/C: 16.3%
Second compound 1 µM, first compound 1 µM
  viability, T/C: 12.6%
Second compound 1 µM, first compound 3.16 µM
  viability, T/C: 17.3%
Second compound 1 µM, first compound 10 µM
  viability, T/C: 23.5%
